Test results reported in patent US8440442B2, “Method of assaying 5-FU” (Myriad Genetics, Inc, priority 2009, dated 2013).

Columns and labels:
[1] = biological target: T1, dihydropyrimidine dehydrogenase (DPD) (Homo sapiens, UniProt Q12882); assay: 5-Vinyluracil, 5-iodouracil and gimeracil as stabilizer of 5-FU in spiked donor blood; assay type: biochemical; conditions: 500 ng/mL 5-FU; 5-iodouracil 10/40 μg/mL, 5-vinyluracil 5/20 μg/mL, gimeracil 300/1,200 ng/mL; 45 minutes room temperature (FIG. 3)
T1 construct: from tissue; host or cells: donor whole blood (K2EDTA), plasma separated from it, and WBC/buffy coat
T1 sequence (Q12882 4-1025): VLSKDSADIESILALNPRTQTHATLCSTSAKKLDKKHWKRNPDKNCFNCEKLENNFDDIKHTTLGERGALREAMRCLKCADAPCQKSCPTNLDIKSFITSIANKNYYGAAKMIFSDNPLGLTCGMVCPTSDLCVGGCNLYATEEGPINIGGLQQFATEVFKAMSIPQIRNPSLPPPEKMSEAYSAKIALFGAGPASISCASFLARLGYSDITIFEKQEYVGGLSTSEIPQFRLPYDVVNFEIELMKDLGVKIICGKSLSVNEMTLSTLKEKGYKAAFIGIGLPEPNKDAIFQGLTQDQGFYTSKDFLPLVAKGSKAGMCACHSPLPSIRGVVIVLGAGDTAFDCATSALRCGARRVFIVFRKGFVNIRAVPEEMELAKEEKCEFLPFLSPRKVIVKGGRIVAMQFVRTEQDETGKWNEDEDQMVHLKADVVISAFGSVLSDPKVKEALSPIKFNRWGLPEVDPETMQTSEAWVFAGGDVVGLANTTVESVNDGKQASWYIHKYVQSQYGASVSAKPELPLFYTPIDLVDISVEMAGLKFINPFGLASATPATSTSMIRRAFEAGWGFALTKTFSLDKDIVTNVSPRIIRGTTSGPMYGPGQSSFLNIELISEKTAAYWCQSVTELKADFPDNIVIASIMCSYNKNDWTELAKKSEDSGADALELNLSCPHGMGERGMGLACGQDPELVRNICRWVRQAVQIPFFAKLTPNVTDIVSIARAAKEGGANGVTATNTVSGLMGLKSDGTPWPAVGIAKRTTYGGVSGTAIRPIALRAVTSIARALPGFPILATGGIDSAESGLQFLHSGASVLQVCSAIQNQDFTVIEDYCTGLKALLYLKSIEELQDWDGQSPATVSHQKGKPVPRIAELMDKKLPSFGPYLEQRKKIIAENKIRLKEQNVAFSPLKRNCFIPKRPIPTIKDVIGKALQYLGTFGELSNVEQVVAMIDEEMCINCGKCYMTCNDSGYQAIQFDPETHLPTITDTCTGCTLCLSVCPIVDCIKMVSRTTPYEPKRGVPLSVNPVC
Description: (§1) In the following illustrative examples, 5-FU was measured using an antibody-based agglutination assay on the Olympus AU680 Analyzer using an antibody disclosed in U.S. Pat. No. 7,205,116. Specifically, the concentration of 5-FU in a sample is determined based on the absorbance of a sample, which is determined by the amount of aggregation by the nanoparticles. The system requires two reagents, which when mixed in the absence of free 5-FU will form large aggregates of nanoparticles and scatter light to result in a higher absorption value. In the presence of free 5-FU, the agglutination reaction becomes somewhat inhibited and scattering of light is less, causing a lower absorption value. The instrument is calibrated twice monthly, and a curve is generated (Absorbance vs. 5-FU concentration). Absorbance values from individual samples are compared against this curve to determine concentration.
Generally in the agglutination assay, 95 μl of a buffer containing 5-FU-labeled amino-dextran is pipetted to a cuvette, followed by 7 μL of a filtered plasma sample. The sample and reagent are mixed and then incubated for about 3.5 minutes. 95 μl of 5-FU antibody-conjugated nanoparticles is pipetted into the cuvette and mixed. The complete reaction incubates for about 6.2 minutes. A series of 27 measurements at 600 nm are taken at regular intervals by the AU680 analyzer throughout this process, and 5-FU concentration is calculated using the measurements from two specific time points.
Three tubes of blood (spray-on K2EDTA tubes, 10 mL) was drawn from each of six donors, and blood tubes were gently inverted several times to mix anti-coagulant. Blood was pooled and kept separate by donor. An aliquot of each blood sample was transferred to a new conical tube, and a calculated volume of stock 5-FU (at 200 ng/μL) was spiked into each blood sample for a final concentration of 500 ng/mL 5-FU. Each blood sample was aliquotted to a set of four tubes (5 mL blood per tube). Each set of tubes was different, but included a combination of the conditions below: […]

[2] = biological target: T1, dihydropyrimidine dehydrogenase (DPD); assay: Eniluracil as stabilizer of 5-FU in spiked donor blood (5-FU agglutination immunoassay); assay type: biochemical; conditions: eniluracil 4000 or 1000 ng/mL final in blood, DMSO; 500 ng/mL 5-FU; room temperature 45 minutes or 24 hours (FIG. 2)
Description: as §1
Generally in the agglutination assay, 95 μl of a buffer containing 5-FU-labeled amino-dextran is pipetted to a cuvette, followed by 7 μL of a filtered plasma sample. The sample and reagent are mixed and then incubated for about 3.5 minutes. […] A series of 27 measurements at 600 nm are taken at regular intervals by the AU680 analyzer throughout this process, and 5-FU concentration is calculated using the measurements from two specific time points. […]

| Structure (SMILES) | stabilizing 5-FU in blood samples [1] | preventing degradation of 5-FU in blood samples [2] |
| --- | --- | --- |
| O=c1[nH]cc(I)c(=O)[nH]1 [5-iodouracil] | effective |  |
| C=Cc1c[nH]c(=O)[nH]c1=O [5-vinyluracil] | effective |  |
| C#Cc1c[nH]c(=O)[nH]c1=O [eniluracil] |  | effective |
